{"source": "ChEMBL document CHEMBL3217734", "about": "“Sulfonyl-hydrazones of cyclic imides derivatives as potent inhibitors of the Mycobacterium tuberculosis protein tyrosine phosphatase B (PtpB)” (Medchemcomm, 2011)", "key": {"[1]": {"tested_on": "Mycobacterium tuberculosis", "test": "Inhibition of N-terminal hexahistidine-tagged recombinant Mycobacterium tuberculosis PtpB expressed in Escherichia coli BL21(DE3) using p-nitrophenylphosphate as substrate at 25 uM measured for 10 mins by ELISA plate spectrophotometric analysis relative to control"}, "[2]": {"biological_target": "T1, Tyrosine-protein phosphatase non-receptor type 1 (Homo sapiens, UniProt P18031)", "T1 sequence (P18031 whole entry)": "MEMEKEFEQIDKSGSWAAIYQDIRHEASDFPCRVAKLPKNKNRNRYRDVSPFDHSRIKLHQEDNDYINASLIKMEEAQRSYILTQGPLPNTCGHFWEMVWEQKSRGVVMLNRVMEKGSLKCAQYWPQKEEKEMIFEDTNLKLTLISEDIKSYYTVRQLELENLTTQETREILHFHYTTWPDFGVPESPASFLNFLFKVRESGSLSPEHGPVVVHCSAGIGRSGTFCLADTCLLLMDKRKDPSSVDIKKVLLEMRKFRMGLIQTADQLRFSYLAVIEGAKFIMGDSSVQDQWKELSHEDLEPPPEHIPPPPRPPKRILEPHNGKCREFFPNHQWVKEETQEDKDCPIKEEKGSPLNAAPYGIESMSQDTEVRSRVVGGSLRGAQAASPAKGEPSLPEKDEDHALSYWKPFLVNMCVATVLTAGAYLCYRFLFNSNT", "test": "Inhibition of PTP1B (unknown origin) using p-nitrophenylphosphate as substrate measured for 10 mins by ELISA plate spectrophotometric analysis"}, "[3]": {"test": "Inhibition of N-terminal hexahistidine-tagged recombinant Mycobacterium tuberculosis PtpB expressed in Escherichia coli BL21(DE3) using p-nitrophenylphosphate as substrate measured for 10 mins by ELISA plate spectrophotometric analysis"}, "[4]": {"test": "Competitive inhibition of N-terminal hexahistidine-tagged recombinant Mycobacterium tuberculosis PtpB expressed in Escherichia coli BL21(DE3) using p-nitrophenylphosphate as substrate measured for 10 mins by Lineweaver-Burk plot analysis"}}, "note": "The source made the active and inactive calls. The calls are words filed in the database; no cut-off is given here."}
{"compound": "Cc1ccc(/C=N/NS(=O)(=O)c2ccc(N3C(=O)C4C5C=CC(C)(O5)C4C3=O)cc2)cc1", "note": "(stereo not drawn)", "values": [{"measurement": "inhibition", "setting": "[1]", "value": 26, "unit": "%"}]}
{"compound": "CC12C=CC(O1)C1C(=O)N(c3ccc(S(=O)(=O)N/N=C/c4ccc(Cl)c(Cl)c4)cc3)C(=O)C12", "note": "(stereo not drawn)", "values": [{"measurement": "inhibition", "setting": "[1]", "value": 34, "unit": "%"}]}
{"compound": "COc1ccc(/C=N/NS(=O)(=O)c2ccc(N3C(=O)C4C5C=CC(C)(O5)C4C3=O)cc2)cc1", "note": "(stereo not drawn)", "values": [{"measurement": "inhibition", "setting": "[1]", "value": "inactive"}]}
{"compound": "O=C1C=CC(=O)N1c1ccc(S(=O)(=O)Cl)cc1", "values": [{"measurement": "inhibition", "setting": "[1]", "value": 14, "unit": "%"}]}
{"compound": "O=C1c2cccc3cccc(c23)C(=O)N1Cc1ccc(S(=O)(=O)N2CCCC2)cc1", "values": [{"measurement": "inhibition", "setting": "[1]", "value": "inactive"}]}
{"compound": "O=C1c2cccc3c(Cl)ccc(c23)C(=O)N1Cc1ccc(S(=O)(=O)N2CCOCC2)cc1", "values": [{"measurement": "inhibition", "setting": "[1]", "value": "inactive"}]}
{"compound": "CC12C=CC(O1)C1C(=O)N(c3ccc(S(=O)(=O)N4CCCC4)cc3)C(=O)C12", "note": "(stereo not drawn)", "values": [{"measurement": "inhibition", "setting": "[1]", "value": "inactive"}]}
{"compound": "CC12C=CC(O1)C1C(=O)N(c3ccc(S(=O)(=O)N4CCOCC4)cc3)C(=O)C12", "note": "(stereo not drawn)", "values": [{"measurement": "inhibition", "setting": "[1]", "value": "inactive"}]}
{"compound": "O=C1C2C3C=CC(O3)C2C(=O)N1c1ccc(S(=O)(=O)N2CCCC2)cc1", "note": "(stereo not drawn)", "values": [{"measurement": "inhibition", "setting": "[1]", "value": "inactive"}]}
{"compound": "CC12C=CC(O1)[C@@H]1C(=O)N(c3ccc(S(=O)(=O)N/N=C/c4ccc(Br)cc4)cc3)C(=O)[C@@H]12", "note": "(stereo partly drawn)", "values": [{"measurement": "IC50", "setting": "[2]", "value": 88, "unit": "µM"}, {"measurement": "inhibition", "setting": "[1]", "value": 59, "unit": "%"}, {"measurement": "IC50", "setting": "[3]", "value": 39, "unit": "µM"}, {"measurement": "Ki", "setting": "[4]", "value": 9, "unit": "µM"}]}
{"compound": "O=C1C=CC(=O)N1c1ccccc1", "values": [{"measurement": "inhibition", "setting": "[1]", "value": 27, "unit": "%"}]}
{"compound": "CC12C=CC(O1)C1C(=O)N(c3ccc(S(=O)(=O)N/N=C/c4ccc([N+](=O)[O-])cc4)cc3)C(=O)C12", "note": "(stereo not drawn)", "values": [{"measurement": "inhibition", "setting": "[1]", "value": 32, "unit": "%"}]}
{"compound": "O=C1C2C3C=CC(O3)C2C(=O)N1c1ccc(S(=O)(=O)N/N=C/c2ccc([N+](=O)[O-])cc2)cc1", "note": "(stereo not drawn)", "values": [{"measurement": "IC50", "setting": "[2]", "value": 245, "unit": "µM"}, {"measurement": "inhibition", "setting": "[1]", "value": 57, "unit": "%"}, {"measurement": "IC50", "setting": "[3]", "value": 41, "unit": "µM"}, {"measurement": "Ki", "setting": "[4]", "value": 15, "unit": "µM"}]}
{"compound": "CC12C=CC(O1)C1C(=O)N(c3ccc(S(=O)(=O)N/N=C/c4ccccc4)cc3)C(=O)C12", "note": "(stereo not drawn)", "values": [{"measurement": "IC50", "setting": "[2]", "value": 7, "unit": "µM"}, {"measurement": "inhibition", "setting": "[1]", "value": 59, "unit": "%"}, {"measurement": "IC50", "setting": "[3]", "value": 18, "unit": "µM"}, {"measurement": "Ki", "setting": "[4]", "value": 7, "unit": "µM"}]}
{"compound": "CC12C=CC(O1)C1C(=O)N(c3ccc(S(=O)(=O)N/N=C/c4ccc(Cl)cc4)cc3)C(=O)C12", "note": "(stereo not drawn)", "values": [{"measurement": "IC50", "setting": "[2]", "value": 41, "unit": "µM"}, {"measurement": "inhibition", "setting": "[1]", "value": 59, "unit": "%"}, {"measurement": "IC50", "setting": "[3]", "value": 21, "unit": "µM"}, {"measurement": "Ki", "setting": "[4]", "value": 2.5, "unit": "µM"}]}
{"compound": "O=C1c2cccc3cccc(c23)C(=O)N1Cc1ccc(S(=O)(=O)N2CCOCC2)cc1", "values": [{"measurement": "inhibition", "setting": "[1]", "value": "inactive"}]}
